# Where two headings read alike, the source gives them in different places.
# Legend:
# SHP2 = SHP2 (Homo sapiens (Human), UniProt Q06124); test: SHP2 Biochemical Assay (DiFMUP conversion, pIRS1-activated)
# In short: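 Rates of DiFMU formation were followed 30 min at ex 360/em 450 nm, with 50 μM DiFMUP, 10 pM SHP2 and pIRS1 peptide ([…]) after 30 min compound pre-incubation at pH 7.0 Bis-Tris propane. Four-parameter logistic IC50s in singlicate; repeat runs averaged.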
# [1] = tested on: pERK (phospho-p44/42 ERK) in HCC827 cells; test: Cellular pERK Inhibition Assay, Method A (In-Cell Western); type: cell-based
# In short: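 In-Cell Western: phospho-p44/42 ERK antibody staining of formalin-fixed HCC827 cells after compound exposure (serum-free medium, 0.2% DMSO, 37 °C, indicated time). Readings minus cell-free blanks were normalised to DMSO-treated wells. Relative IC50 came from four-parameter logistic fits of quadruplicates, given as single or mean values.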
# [2] = Table 19, head prints unit as "-M"
# [3] = Homo sapiens, Table 19, head prints unit as "-M", read-out: pERK (IC50) Method A
# Chain of SHP2 (Q06124 whole entry): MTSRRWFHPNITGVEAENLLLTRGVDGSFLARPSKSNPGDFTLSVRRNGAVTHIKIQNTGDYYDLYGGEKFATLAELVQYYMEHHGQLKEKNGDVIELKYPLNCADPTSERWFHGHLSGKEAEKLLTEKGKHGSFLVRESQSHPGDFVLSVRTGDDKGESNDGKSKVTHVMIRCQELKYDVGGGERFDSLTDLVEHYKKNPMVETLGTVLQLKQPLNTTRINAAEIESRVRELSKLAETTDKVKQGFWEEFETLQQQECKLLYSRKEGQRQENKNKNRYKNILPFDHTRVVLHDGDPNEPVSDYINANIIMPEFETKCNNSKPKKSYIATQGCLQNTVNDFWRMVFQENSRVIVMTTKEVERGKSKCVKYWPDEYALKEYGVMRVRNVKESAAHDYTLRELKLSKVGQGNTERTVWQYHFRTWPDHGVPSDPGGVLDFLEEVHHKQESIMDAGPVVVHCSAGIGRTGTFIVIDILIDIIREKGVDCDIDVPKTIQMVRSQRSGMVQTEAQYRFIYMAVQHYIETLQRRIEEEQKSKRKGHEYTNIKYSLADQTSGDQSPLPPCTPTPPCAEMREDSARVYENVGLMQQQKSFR
Compound,IC50 (SHP2; [2]) [nM],"IC50 [1, 3] [µM]",IC50 (SHP2; Table 20) [nM],"IC50 ([1]; Homo sapiens, Table 20, read-out: pERK (IC50, μM) Method A) [µM]","IC50 ([1]; Table 19, head prints unit as ""-M"", read-out: pERK (IC50) Method A) [µM]"
"Cn1nc2ccc(-c3c[nH]c4nc(N5[C@@H]6CC[C@H]5C[C@@](C)(N)C6)n(C)c(=O)c34)c(Cl)c2c1Cl [Example 79, 2-(endo-3-amino-3-methyl-8-azabicyclo[3.2.1]octan-8-yl)-5-(3,4-dichloro-2-methyl-2H-indazol-5-yl)-3-methyl-3,7-dihydro-4H-pyrrolo[2,3-d]pyrimidin-4-one]",5.5,0.16,,,
"CN(C)C(=O)CCn1cc2c(Cl)c(-c3c[nH]c4nc(N5C6CCC5CNC6)n(C)c(=O)c34)ccc2n1 [Example 88, 3-(5-(2-(3,8-diazabicyclo[3.2.1]octan-8-yl)-3-methyl-4-oxo-4,7-dihydro-3H-pyrrolo[2,3-d]pyrimidin-5-yl)-4-chloro-2H-indazol-2-yl)-N,N-dimethylpropanamide]",52,4.5,,,
"CCn1cc2c(Cl)c(-c3c[nH]c4nc(N5C6CCC5CNC6)n(C)c(=O)c34)ccc2n1 [Example 91, 2-(3,8-diazabicyclo[3.2.1]octan-8-yl)-5-(4-chloro-2-ethyl-2H-indazol-5-yl)-3-methyl-3,7-dihydro-4H-pyrrolo[2,3-d]pyrimidin-4-one]",12,0.34,,,
"Cn1cc2c(Cl)c(-c3c[nH]c4nc(N5[C@@H]6CC[C@H]5C[C@@H](N)C6)n(C)c(=O)c34)ccc2n1 [Example 8, 2-(endo-3-amino-8-azabicyclo[3.2.1]octan-8-yl)-5-(4-chloro-2-methyl-2H-indazol-5-yl)-3-methyl-3,7-dihydro-4H-pyrrolo[2,3-d]pyrimidin-4-one]",11,0.095,,,
"CCn1cc2c(Cl)c(-c3c[nH]c4nc(N5[C@@H]6CC[C@H]5C[C@H](N)C6)n(C)c(=O)c34)ccc2n1 [Example 4, 2-(exo-3-amino-8-azabicyclo[3.2.1]octan-8-yl)-5-(4-chloro-2-ethyl-2H-indazol-5-yl)-3-methyl-3,7-dihydro-4H-pyrrolo[2,3-d]pyrimidin-4-one]",7.5,0.12,,,
"Cn1nc2ccc(-c3c[nH]c4nc(N5CC6COCC(C5)N6)n(C)c(=O)c34)c(Cl)c2c1Cl [Example 80, 2-(3-oxa-7,9-diazabicyclo[3.3.1]nonan-7-yl)-5-(3,4-dichloro-2-methyl-2H-indazol-5-yl)-3-methyl-3,7-dihydro-4H-pyrrolo[2,3-d]pyrimidin-4-one]",11,0.27,,,
"Cn1cc2c(Cl)c(-c3c[nH]c4nc(N5[C@H]6CC[C@@H]5[C@@H](F)[C@H](N)C6)n(C)c(=O)c34)ccc2n1 [Example 129, 2-((1R,2S,3R,5S)-3-amino-2-fluoro-8-azabicyclo[3.2.1]octan-8-yl)-5-(4-chloro-2-methyl-2H-indazol-5-yl)-3-methyl-3,7-dihydro-4H-pyrrolo[2,3-d]pyrimidin-4-one]",69,0.98,,,
"Cn1cc2c(F)c(-c3c[nH]c4nc(N5[C@@H]6CC[C@H]5C[C@@H](N)C6)n(C)c(=O)c34)ccc2n1 [Example 70, 2-(endo-3-amino-8-azabicyclo[3.2.1]octan-8-yl)-5-(4-fluoro-2-methyl-2H-indazol-5-yl)-3-methyl-3,7-dihydro-4H-pyrrolo[2,3-d]pyrimidin-4-one]",29,0.19,,,
"Cn1nc2ccc(-c3n[nH]c4nc(N5C[C@@H]6CC[C@H]5[C@H]6N)n(C)c(=O)c34)c(Cl)c2c1Cl (racemic) [Example 126, rac-6-((1S,4S,7S)-7-amino-2-azabicyclo[2.2.1]heptan-2-yl)-3-(3,4-dichloro-2-methyl-2H-indazol-5-yl)-5-methyl-1,5-dihydro-4H-pyrazolo[3,4-d]pyrimidin-4-one]",13,0.084,,,
"Cn1cc2c(Cl)c(-c3c[nH]c4nc(N5[C@@H]6CCC[C@H]5C[C@@H](N)C6)n(C)c(=O)c34)ccc2n1 [Example 37, 2-(endo-3-amino-9-azabicyclo[3.3.1]nonan-9-yl)-5-(4-chloro-2-methyl-2H-indazol-5-yl)-3-methyl-3,7-dihydro-4H-pyrrolo[2,3-d]pyrimidin-4-one]",12,0.97,,,
"Cn1c(N2[C@@H]3CC[C@H]2C[C@@H](N)C3)nc2[nH]cc(-c3ccc4nnn(C)c4c3Cl)c2c1=O [Example 74, 2-(endo-3-amino-8-azabicyclo[3.2.1]octan-8-yl)-5-(7-chloro-1-methyl-1H-benzo[d][1,2,3]triazol-6-yl)-3-methyl-3,7-dihydro-4H-pyrrolo[2,3-d]pyrimidin-4-one]",170,5.4,,,
"Cn1cc2c(Cl)c(-c3c[nH]c4nc(N5C6COCC5CC(N)C6)n(C)c(=O)c34)ccc2n1 (stereo not drawn) [Example 22, 2-(7-amino-3-oxa-9-azabicyclo[3.3.1]nonan-9-yl)-5-(4-chloro-2-methyl-2H-indazol-5-yl)-3-methyl-3,7-dihydro-4H-pyrrolo[2,3-d]pyrimidin-4-one]",14,2.2,,,
"C[C@@H]1CNCCN1c1nc2[nH]cc(-c3ccc4nn(C)cc4c3Cl)c2c(=O)n1C [Example 47, (R)-5-(4-chloro-2-methyl-2H-indazol-5-yl)-3-methyl-2-(2-methylpiperazin-1-yl)-3,7-dihydro-4H-pyrrolo[2,3-d]pyrimidin-4-one]",32,0.38,,,
"CC(C)N[C@@H]1C[C@@H]2CC[C@H]1N2c1nc2[nH]nc(-c3ccc4nn(C)c(Cl)c4c3Cl)c2c(=O)n1C [Example 179, 3-(3,4-Dichloro-2-methyl-2H-indazol-5-yl)-6-((1R,2R,4S)-2-(isopropylamino)-7-azabicyclo[2.2.1]heptan-7-yl)-5-methyl-1,5-dihydro-4H-pyrazolo[3,4-d]pyrimidin-4-one]",,,150,2.1,
"CN[C@@H]1C[C@@H]2CC[C@H]1N2c1nc2[nH]nc(-c3ccc4nn(C)c(Cl)c4c3F)c2c(=O)n1C [Example 121, 3-(3-chloro-4-fluoro-2-methyl-2H-indazol-5-yl)-5-methyl-6-((1R,2R,4S)-2-(methylamino)-7-azabicyclo[2.2.1]heptan-7-yl)-1,5-dihydro-4H-pyrazolo[3,4-d]pyrimidin-4-one]",16,0.21,,,
"Cn1cc2c(Cl)c(-c3c[nH]c4nc(N5[C@@H]6CC[C@H]5C[C@@](C)(N)C6)n(C)c(=O)c34)ccc2n1 [Example 16, 2-(endo-3-amino-3-methyl-8-azabicyclo[3.2.1]octan-8-yl)-5-(4-chloro-2-methyl-2H-indazol-5-yl)-3-methyl-3,7-dihydro-4H-pyrrolo[2,3-d]pyrimidin-4-one]",11,0.11,,,
"CN[C@@H]1C[C@@H]2CC[C@H]1N2c1nc2[nH]cc(-c3ccc4nc(C)sc4c3Cl)c2c(=O)n1C [Example 107, 5-(7-chloro-2-methylbenzo[d]thiazol-6-yl)-3-methyl-2-((1R,2R,4S)-2-(methylamino)-7-azabicyclo[2.2.1]heptan-7-yl)-3,7-dihydro-4H-pyrrolo[2,3-d]pyrimidin-4-one]",7,0.27,,,
"Cn1cc2c(Cl)c(-c3c[nH]c4nc(N5CCC6(CCCCN6)CC5)n(C)c(=O)c34)ccc2n1 [Example 41, 5-(4-chloro-2-methyl-2H-indazol-5-yl)-3-methyl-2-(1,9-diazaspiro[5.5]undecan-9-yl)-3,7-dihydro-4H-pyrrolo[2,3-d]pyrimidin-4-one]",57,1.8,,,
"Cn1c(N2C3CCC2CC(N)C3)nc2[nH]cc(-c3cc4nnn(C)c4c(F)c3F)c2c1=O (stereo not drawn) [Example 71, 2-(endo-3-amino-8-azabicyclo[3.2.1]octan-8-yl)-5-(6,7-difluoro-1-methyl-1H-benzo[d][1,2,3]triazol-5-yl)-3-methyl-3,7-dihydro-4H-pyrrolo[2,3-d]pyrimidin-4-one]",260,,,,5
"Cn1cc2c(Cl)c(-c3c[nH]c4nc(N5CC6CCCC(C5)N6)n(C)c(=O)c34)ccc2n1 [Example 30, 2-(3,9-diazabicyclo[3.3.1]nonan-3-yl)-5-(4-chloro-2-methyl-2H-indazol-5-yl)-3-methyl-3,7-dihydro-4H-pyrrolo[2,3-d]pyrimidin-4-one]",9.7,0.22,,,
"Cn1cc2c(Cl)c(-c3c[nH]c4nc(N5[C@@H]6CC[C@H]5[C@H](F)[C@@H](N)C6)n(C)c(=O)c34)ccc2n1 [Example 130, 2-((1S,2R,3S,5R)-3-amino-2-fluoro-8-azabicyclo[3.2.1]octan-8-yl)-5-(4-chloro-2-methyl-2H-indazol-5-yl)-3-methyl-3,7-dihydro-4H-pyrrolo[2,3-d]pyrimidin-4-one]",63,0.8,,,
"CN[C@H]1C[C@H]2CC[C@@H](C1)N2c1nc2[nH]cc(-c3ccc4nn(C)cc4c3Cl)c2c(=O)n1C [Example 14, 5-(4-chloro-2-methyl-2H-indazol-5-yl)-3-methyl-2-(endo-3-(methylamino)-8-azabicyclo[3.2.1]octan-8-yl)-3,7-dihydro-4H-pyrrolo[2,3-d]pyrimidin-4-one]",24,0.31,,,
"C[C@H]1CNCCN1c1nc2[nH]cc(-c3ccc4nn(C)cc4c3Cl)c2c(=O)n1C [Example 48, (S)-5-(4-chloro-2-methyl-2H-indazol-5-yl)-3-methyl-2-(2-methylpiperazin-1-yl)-3,7-dihydro-4H-pyrrolo[2,3-d]pyrimidin-4-one]",85,1,,,
"CN[C@@H]1C[C@@H]2CC[C@H]1N2c1nc2[nH]nc(-c3ccc4nn(C)c(Cl)c4c3Cl)c2c(=O)n1C [Example 119, 3-(3,4-dichloro-2-methyl-2H-indazol-5-yl)-5-methyl-6-((1R,2R,4S)-2-(methylamino)-7-azabicyclo[2.2.1]heptan-7-yl)-1,5-dihydro-4H-pyrazolo[3,4-d]pyrimidin-4-one]",17,0.29,,,
